Laboratory results published in US8846671B2, “Heterocyclic alkynyl benzene compounds and medical compositions and uses thereof” (Guangzhou Institute of Biomedicine and Health, Chinese …, priority 2010, dated 2014).
Counter-ions that a name gives are not always drawn. Like-named read-outs stand apart in the source and are kept apart here. Blank lines part the entries; values can stand above or below the compound they belong to.

What was measured:
[1] = Pharmacokinetics and bioavailability in rats; format: in vivo; conditions: SD rats; for bioavailability / BA(% Oral bioavailability): calculated according to AUC data, PO vs IV; for bioavailability: read-out: BA(% Oral bioavailability)
Experimental: Pharmacokinetics and bioavailability in rats. […] The blood samples were collected at the proper time points after administration, add heparin-anticoagulant, and the supernatants of the blood samples were collected (3000 rpm, 10 min) and stored at -20° C. for HPLC-MS analysis. After protein-precipitation procedure with acetonitrile, supernatants were collected after 3000 rpm, 10 min for analysis with HPLC-MS. The data were analyzed with software DAS2.0 to separately acquire the parameters of compartment models and non-compartment models. The bioavailability was calculated according to AUC data.

[2] = tested on: K562 (human chronic myelogenous leukemia cell line); test: tumor cell proliferation, MTT or CCK8 assay, 72 h incubation; format: cell-based; conditions: K562, 72 h, read-out: IC50 on tumor cell proliferation, K562
Experimental: (§1) The heterocyclic alkynyl benzene compounds at different concentrations (1×10^−10˜1×10^−5M) were incubated for 72 hours individually applied to 6 cell lines K562 (human CML cell line), MOLT-4 (human ALL cell line), U937 (human CML cell line), MEG-01 (human CML cell line), L78 (human lung cancer cell line), Ba/F3-T315I (mice Pro-B cells transformed with Bcr-AblT315I and STI57′-resistant cell line). After incubation for 72 hrs, cell proliferation was then determined by MTT assay or CCK8 assay, and 4 hr incubation is further conducted, the absorbance at 570 nm (CCK8, 450 nm, 650 nm) was measured using enzyme Microplate Reader. […] Based on the inhibition potency of the heterocyclic alkynyl benzene compounds on the cell proliferation, IC50 values were calculated and summarized in the Table 1 and Table 2 (The compounds used were synthesized by Examples 1-40, and the compounds are marked with Drug No. series in Table 1).

[3] = tested on: MOLT-4 (Human acute lymphoblastic leukemia cell line); test: as above; format: cell-based; conditions: MOLT-4, 72 h, read-out: IC50 on tumor cell proliferation, MOLT-4
Experimental: as §1

[4] = tested on: K562R cells (imatinib-resistant cell line); test: as above; format: cell-based; conditions: Homo sapiens, K-562R, read-out: IC50 on tumor cell proliferation, K562R cells
[5] = molecular target: BAF3-T315I cells (Ba/F3 cell line stably expressing BCR/ABL T315I) (Homo sapiens, UniProt P00519, T315I, cells depend on it); test: as above; format: cell-based, mice
Experimental: The heterocyclic alkynyl benzene compounds at different concentrations (1×10^−10˜1×10^−5M) were incubated for 72 hours individually applied to 6 cell lines K562 (human CML cell line), MOLT-4 (human ALL cell line), U937 (human CML cell line), MEG-01 (human CML cell line), L78 (human lung cancer cell line), Ba/F3-T315I (mice Pro-B cells transformed with Bcr-AblT315I and STI57′-resistant cell line). After incubation for 72 hrs, cell proliferation was then determined by MTT assay or CCK8 assay, and 4 hr incubation is further conducted, the absorbance at 570 nm (CCK8, 450 nm, 650 nm) was measured using enzyme Microplate Reader.

[6] = both sexes, Sprague-Dawley, rat, plasma, iv, 10 mg/kg, IV 10 mg/kg
[7] = both sexes, Sprague-Dawley, rat, plasma, po, 20 mg/kg, PO 20 mg/kg
[8] = both sexes, Sprague-Dawley, rat, plasma, po
[9] = both sexes, Sprague-Dawley, rat, plasma, iv, 2.5 mg/kg, IV 2.5 mg/kg
[10] = both sexes, Sprague-Dawley, rat, plasma, po, 25 mg/kg, PO 25 mg/kg
[11] = both sexes, Sprague-Dawley, rat, plasma, po, 25 mg/kg, PO 25 mg/kg, read-out: Cmax
[12] = both sexes, Sprague-Dawley, rat, plasma, po, 25 mg/kg, PO 25 mg/kg, read-out: Tmax
[13] = both sexes, Sprague-Dawley, rat, plasma, iv, 5 mg/kg, IV 5 mg/kg
[14] = both sexes, Sprague-Dawley, rat, plasma, iv, 5 mg/kg, IV 5 mg/kg, read-out: Cmax
[15] = both sexes, Sprague-Dawley, rat, plasma, iv, 5 mg/kg, IV 5 mg/kg, read-out: Tmax
[16] = both sexes, Sprague-Dawley, rat, plasma, iv, 25 mg/kg, IV 25 mg/kg
[17] = both sexes, Sprague-Dawley, rat, plasma, po, 5 mg/kg, PO 5 mg/kg
[18] = Ba/F3 expressing BCR/ABL T315I, 72 h, Table 1; read-out: IC50 on tumor cell proliferation, BAF3-T315I cells
[19] = IV 5 mg/kg, dihydrochloride, 5 mg/kg
[20] = PO 25 mg/kg, dihydrochloride, 25 mg/kg

Structure (SMILES): Cc1cn(-c2cc(NC(=O)c3ccc(C)c(C#Cc4cnc(NC(C)C)nc4)c3)cc(C(F)(F)F)c2)cn1 [D752 mesylate salt, 3-(2-(2-(isopropylamino)pyrimidin-5-yl)ethynyl)-4-methyl-N-(3-(4-methyl-1H-imidazol-1-yl)-5-(trifluoromethyl)phenyl)benzamide]
AUC(0-inf) [1, 6]: 305000 ng·h/mL | half-life [1, 6]: 43.9 h | Cmax ([1]; both sexes, Sprague-Dawley, rat, plasma, iv, 10 mg/kg, IV 10 mg/kg, read-out: Cmax): 19600 ng/mL | Tmax ([1]; both sexes, Sprague-Dawley, rat, plasma, iv, 10 mg/kg, IV 10 mg/kg, read-out: Tmax): 0.033 h | AUC(0-inf) [1, 7]: 70400 ng·h/mL | half-life [1, 7]: 7.55 h | Cmax ([1]; both sexes, Sprague-Dawley, rat, plasma, po, 20 mg/kg, PO 20 mg/kg, read-out: Cmax): 1900 ng/mL | Tmax ([1]; both sexes, Sprague-Dawley, rat, plasma, po, 20 mg/kg, PO 20 mg/kg, read-out: Tmax): 20 h | bioavailability [1, 8]: 11.5%

Structure (SMILES): CCNc1ncc(C#Cc2cc(C(=O)Nc3cc(-n4cnc(C)c4)cc(C(F)(F)F)c3)ccc2C)cn1 [D755 hydrochloride salt, 3-(2-(2-(ethylamino)pyrimidin-5-yl)ethynyl)-4-methyl-N-(3-(4-methyl-1H-imidazol-1-yl)-5-(trifluoromethyl)phenyl)benzamide]
AUC(0-inf) [1, 9]: 3740 ng·h/mL | half-life [1, 9]: 26.2 h | Cmax ([1]; both sexes, Sprague-Dawley, rat, plasma, iv, 2.5 mg/kg, IV 2.5 mg/kg, read-out: Cmax): 510 ng/mL | Tmax ([1]; both sexes, Sprague-Dawley, rat, plasma, iv, 2.5 mg/kg, IV 2.5 mg/kg, read-out: Tmax): 0.033 h | AUC(0-inf) [1, 10]: 23700 ng·h/mL | half-life [1, 10]: 8.3 h | Cmax [1, 11]: 1260 ng/mL | Tmax [1, 12]: 6.25 h | bioavailability [1, 8]: 63.3%

Structure (SMILES): Cc1cn(-c2cc(NC(=O)c3ccc(C)c(C#Cc4cnc5[nH]ncc5c4)c3)cc(C(F)(F)F)c2)cn1 [D767 hydrochloride salt, 3-(2-(1H-pyrazolo[3,4-b]pyridin-5-yl)ethynyl)-4-methyl-N-(3-(4-methyl-1H-imidazol-1-yl)-5-(trifluoromethyl)phenyl)benzamide]
AUC(0-∞) ([1]; PO 25 mg/kg, 25 mg/kg): 62208 ng·h/mL | Tmax ([1]; PO 25 mg/kg, 25 mg/kg): 7.75 h | BA(% Oral bioavailability) [1]: 19% | AUC(0-inf) [1, 13]: 65500 ng·h/mL | half-life [1, 13]: 5.6 h | Cmax [1, 14]: 15300 ng/mL | Tmax [1, 15]: 0.033 h | half-life [1, 10]: 7.18 h | Cmax [1, 11]: 3620 ng/mL

Structure (SMILES): CNc1ncc(C#Cc2cc(C(=O)Nc3cc(-n4cnc(C)c4)cc(C(F)(F)F)c3)ccc2C)cn1 [D800 hydrochloride salt, 4-methyl-N-(3-(4-methyl-1H-imidazol-1-yl)-5-(trifluoromethyl)phenyl)-3-(2-(2-(methylamino)pyrimidin-5-yl)ethynyl)benzamide]
BA(% Oral bioavailability) [1]: 27.1% | AUC(0-inf) [1, 16]: 48600 ng·h/mL | half-life [1, 16]: 7.8 h | Cmax ([1]; both sexes, Sprague-Dawley, rat, plasma, iv, 25 mg/kg, IV 25 mg/kg, read-out: Cmax): 3090 ng/mL | Tmax ([1]; both sexes, Sprague-Dawley, rat, plasma, iv, 25 mg/kg, IV 25 mg/kg, read-out: Tmax): 2 h | AUC(0-inf) [1, 17]: 35800 ng·h/mL | half-life [1, 17]: 7.5 h | Cmax ([1]; both sexes, Sprague-Dawley, rat, plasma, po, 5 mg/kg, PO 5 mg/kg, read-out: Cmax): 11000 ng/mL | Tmax ([1]; both sexes, Sprague-Dawley, rat, plasma, po, 5 mg/kg, PO 5 mg/kg, read-out: Tmax): 0.033 h

Structure (SMILES): Cc1ccc(C(=O)Nc2ccc(CN3CCN(C)CC3)c(C(F)(F)F)c2)cc1C#Cc1cnc2[nH]ncc2c1 [D824 hydrochloride salt, 3-(2-(1H-pyrazolo[3,4-b]pyridin-5-yl)ethynyl)-4-methyl-N-(4-((4-methylpiperazin-1-yl)methyl)-3-(trifluoromethyl)phenyl)benzamide dihydrochloride]
AUC(0-∞) [1, 19]: 2922.411 ng·h/mL | Cmax [1, 19]: 1375.625 ng/mL | T1/2 [1, 19]: 5.557 h | Tmax [1, 19]: 0.067 h | AUC(0-∞) [1, 20]: 7108.253 ng·h/mL | Cmax [1, 20]: 390.5 ng/mL | T1/2 [1, 20]: 10.55 h | BA(% Oral bioavailability) ([1]; dihydrochloride): 48.7% | Tmax [1, 12]: 6 h

Structure (SMILES): Cc1ccc(C(=O)Nc2ccc(CN3CCN(C)CC3)c(C(F)(F)F)c2)cc1C#Cc1cnc(NC2CC2)nc1 [D825 mesylate salt, 3-(2-(2-(cyclopropylamino)pyrimidin-5-yl)ethynyl)-4-methyl-N-(4-((4-methylpiperazin-1-yl)methyl)-3-(trifluoromethyl)phenyl)benzamide trimesylate]
AUC(0-inf) [1, 13]: 11800 ng·h/mL | half-life [1, 13]: 11.7 h | Cmax [1, 14]: 2330 ng/mL | Tmax [1, 15]: 0.033 h | AUC(0-inf) [1, 10]: 34600 ng·h/mL | half-life [1, 10]: 11.5 h | Cmax [1, 11]: 1700 ng/mL | Tmax [1, 12]: 4.75 h | bioavailability [1, 8]: 58.5%

Structure (SMILES): Cc1ccc(C(=O)Nc2cc(-n3ccnc3)cc(C(F)(F)F)c2)cc1C#Cc1cnc2[nH]ncc2c1 [D831 mesylate salt, N-(3-(1H-imidazol-1-yl)-5-(trifluoromethyl)phenyl)-3-(2-(1H-pyrazolo[3,4-b]pyridin-5-yl)ethynyl)-4-methylbenzamide]
AUC(0-inf) [1, 13]: 107000 ng·h/mL | half-life [1, 13]: 5.24 h | Cmax [1, 14]: 64200 ng/mL | Tmax [1, 15]: 0.033 h | AUC(0-inf) [1, 10]: 73900 ng·h/mL | half-life [1, 10]: 4.66 h | Cmax [1, 11]: 9520 ng/mL | Tmax [1, 12]: 2.25 h | bioavailability [1, 8]: 13.8%

Structure (SMILES): Cc1ncn(-c2cc(NC(=O)c3ccc(C)c(C#Cc4cnc5[nH]ncc5c4)c3)cc(C(F)(F)F)c2)n1 [D835 hydrochloride salt, 3-(2-(1H-pyrazolo[3,4-b]pyridin-5-yl)ethynyl)-4-methyl-N-(3-(3-methyl-1H-1,2,4-triazol-1-yl)-5-(trifluoromethyl)phenyl)benzamide]
AUC(0-inf) [1, 13]: 8540 ng·h/mL | half-life [1, 13]: 16.9 h | Cmax [1, 14]: 976 ng/mL | Tmax [1, 15]: 0.033 h | AUC(0-inf) [1, 10]: 3470 ng·h/mL | half-life [1, 10]: 8.81 h | Cmax [1, 11]: 233 ng/mL | Tmax [1, 12]: 4 h | bioavailability [1, 8]: 8.1%

Further lines, results first:

IC50 ([2]; MTT or CCK8, nM): 0.724 nM | IC50 ([3]; MTT or CCK8, nM): > 100 nM | IC50 ([4]; imatinib-resistant K562R): 58 nM | GI50 [5, 18]: 19.5 nM
Structure (SMILES): Cc1ccc(C(=O)Nc2cccc(C(F)(F)F)c2)cc1C#Cc1cnc2[nH]ncc2c1 [D821, 3-(2-(1H-pyrazolo[3,4-b]pyridin-5-yl)ethynyl)-4-methyl-N-(3-(trifluoromethyl)phenyl)benzamide]

IC50 ([2]; MTT or CCK8, nM): 2.68 nM | IC50 ([3]; MTT or CCK8, nM): 1850 nM | IC50 ([4]; imatinib-resistant K562R): 59 nM | GI50 [5, 18]: 29.8 nM
Structure (SMILES): Cc1cn(-c2cc(NC(=O)c3ccc(C)c(C#Cc4ccc(N)nc4)c3)cc(C(F)(F)F)c2)cn1 [D827, 3-(2-(6-aminopyridin-3-yl)ethynyl)-4-methyl-N-(3-(4-methyl-1H-imidazol-1-yl)-5-(trifluoromethyl)phenyl)benzamide]

IC50 [2]: 30.9 nM | IC50 [3]: > 100 nM | IC50 [4]: 3070 nM | GI50 ([5]; read-out: IC50 on tumor cell proliferation, BAF3-T315I cells; Ba/F3 expressing BCR/ABL T315I, 72 h, Table 1): 2480 nM
Structure (SMILES): Cc1cn(-c2cc(NC(=O)c3ccc(C)c(C#Cc4cnc(NC5CCCCC5)nc4)c3)cc(C(F)(F)F)c2)cn1 [D828, 3-(2-(2-(cyclohexylamino)pyrimidin-5-yl)ethynyl)-4-methyl-N-(3-(4-methyl-1H-imidazol-1-yl)-5-(trifluoromethyl)phenyl)benzamide]
